# Experiments:
# Assay in all cases: relative viability (nuclei count vs DMSO), 5 days (fraction); higher = more cells survive
# NCI-H23 = tested on: NCI-H23
# How it was run: (§1)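 The day after seeding in 1536-well plates, lung cancer cell lines were treated by pin tool with a single drug, or with a fixed anchor-drug dose together with five library-drug doses (not always all listed) in √10 steps. After 5 days, a combined fix-and-stain solution (final 0.05% Triton X-100, 1% formaldehyde, 1 ug/ml Hoechst) was added. Nuclei counted on 4× images gave relative viability as treated counts over vehicle counts, reported as the median of duplicate plates.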
# HCC-78 = tested on: HCC-78
# How it was run: as §1
# RERF-LC-KJ = tested on: RERF-LC-KJ
# How it was run: as §1
# EKVX = tested on: EKVX
# How it was run: as §1
# EPLC-272H = tested on: EPLC-272H
# How it was run: as §1
# LU99A = tested on: LU99A
# How it was run: as §1
# HCC-827 = tested on: HCC-827
# How it was run: as §1
# ChaGo-K-1 = tested on: ChaGo-K-1
# How it was run: as §1
# PC-14 = tested on: PC-14
# How it was run: as §1
# SW 1573 = tested on: SW 1573
# How it was run: as §1
# NCI-H2405 = tested on: NCI-H2405
# How it was run: as §1
# SK-LU-1 = tested on: SK-LU-1
# How it was run: as §1
# NCI-H2126 = tested on: NCI-H2126
# How it was run: as §1
# NCI-H322M = tested on: NCI-H322M
# How it was run: as §1
# NCI-H1563 = tested on: NCI-H1563
# How it was run: as §1
# NCI-H1666 = tested on: NCI-H1666
# How it was run: as §1
# EMC-BAC-2 = tested on: EMC-BAC-2
# How it was run: as §1
# NCI-H1975 = tested on: NCI-H1975
# How it was run: as §1
# LCLC-103H = tested on: LCLC-103H
# How it was run: as §1
compound,measurement,setting,value
CC(=O)O[C@@]12CO[C@@H]1C[C@H](O)[C@@]1(C)C(=O)[C@H](O)C3=C(C)[C@@H](OC(=O)[C@H](O)[C@@H](NC(=O)OC(C)(C)C)c4ccccc4)C[C@@](O)([C@@H](OC(=O)c4ccccc4)[C@H]21)C3(C)C [Docetaxel] + CC(C)C[C@H](NC(=O)[C@H](Cc1ccccc1)NC(=O)c1cnccn1)B(O)O [Bortezomib] (partner 0.002 µM),relative viability,NCI-H23; first compound 0.0002 µM,1.08
same,relative viability,NCI-H23; first compound 0.000632 µM,0.574
same,relative viability,NCI-H23; first compound 0.002 µM,0.399
same,relative viability,NCI-H23; first compound 0.006325 µM,0.169
same,relative viability,NCI-H23; first compound 0.02 µM,0.104
same,relative viability,HCC-78; first compound 0.0002 µM,0.581
same,relative viability,HCC-78; first compound 0.000632 µM,0.524
same,relative viability,HCC-78; first compound 0.002 µM,0.326
same,relative viability,HCC-78; first compound 0.006325 µM,0.487
same,relative viability,HCC-78; first compound 0.02 µM,0.27
same,relative viability,RERF-LC-KJ; first compound 0.0002 µM,0.967
same,relative viability,RERF-LC-KJ; first compound 0.000632 µM,0.841
same,relative viability,RERF-LC-KJ; first compound 0.002 µM,0.499
same,relative viability,RERF-LC-KJ; first compound 0.006325 µM,0.251
same,relative viability,RERF-LC-KJ; first compound 0.02 µM,0.198
same,relative viability,EKVX; first compound 0.0002 µM,1.05
same,relative viability,EKVX; first compound 0.000632 µM,0.718
same,relative viability,EKVX; first compound 0.002 µM,0.429
same,relative viability,EKVX; first compound 0.006325 µM,0.269
same,relative viability,EKVX; first compound 0.02 µM,0.152
same,relative viability,EPLC-272H; first compound 0.0002 µM,0.761
same,relative viability,EPLC-272H; first compound 0.000632 µM,0.506
same,relative viability,EPLC-272H; first compound 0.002 µM,0.209
same,relative viability,EPLC-272H; first compound 0.006325 µM,0.168
same,relative viability,EPLC-272H; first compound 0.02 µM,0.0779
same,relative viability,LU99A; first compound 0.0002 µM,1.01
same,relative viability,LU99A; first compound 0.000632 µM,0.637
same,relative viability,LU99A; first compound 0.002 µM,0.545
same,relative viability,LU99A; first compound 0.006325 µM,0.282
same,relative viability,LU99A; first compound 0.02 µM,0.221
same,relative viability,HCC-827; first compound 0.0002 µM,0.891
same,relative viability,HCC-827; first compound 0.000632 µM,0.962
same,relative viability,HCC-827; first compound 0.002 µM,1
same,relative viability,HCC-827; first compound 0.006325 µM,0.562
same,relative viability,HCC-827; first compound 0.02 µM,0.328
same,relative viability,ChaGo-K-1; first compound 0.0002 µM,1
same,relative viability,ChaGo-K-1; first compound 0.000632 µM,0.542
same,relative viability,ChaGo-K-1; first compound 0.002 µM,0.487
same,relative viability,ChaGo-K-1; first compound 0.006325 µM,0.419
same,relative viability,ChaGo-K-1; first compound 0.02 µM,0.267
same,relative viability,PC-14; first compound 0.0002 µM,0.826
same,relative viability,PC-14; first compound 0.000632 µM,0.803
same,relative viability,PC-14; first compound 0.002 µM,0.132
same,relative viability,PC-14; first compound 0.006325 µM,0.103
same,relative viability,PC-14; first compound 0.02 µM,0.0579
same,relative viability,SW 1573; first compound 0.0002 µM,1.05
same,relative viability,SW 1573; first compound 0.000632 µM,0.364
same,relative viability,SW 1573; first compound 0.002 µM,0.265
same,relative viability,SW 1573; first compound 0.006325 µM,0.195
same,relative viability,SW 1573; first compound 0.02 µM,0.201
same,relative viability,NCI-H2405; first compound 0.0002 µM,0.988
same,relative viability,NCI-H2405; first compound 0.000632 µM,0.956
same,relative viability,NCI-H2405; first compound 0.002 µM,0.681
same,relative viability,NCI-H2405; first compound 0.006325 µM,0.394
same,relative viability,NCI-H2405; first compound 0.02 µM,0.308
same,relative viability,SK-LU-1; first compound 0.0002 µM,0.951
same,relative viability,SK-LU-1; first compound 0.000632 µM,0.392
same,relative viability,SK-LU-1; first compound 0.002 µM,0.307
same,relative viability,SK-LU-1; first compound 0.006325 µM,0.267
same,relative viability,SK-LU-1; first compound 0.02 µM,0.208
same,relative viability,NCI-H2126; first compound 0.0002 µM,1.12
same,relative viability,NCI-H2126; first compound 0.000632 µM,1.09
same,relative viability,NCI-H2126; first compound 0.002 µM,1.04
same,relative viability,NCI-H2126; first compound 0.006325 µM,0.427
same,relative viability,NCI-H2126; first compound 0.02 µM,0.288
same,relative viability,NCI-H322M; first compound 0.0002 µM,1.11
same,relative viability,NCI-H322M; first compound 0.000632 µM,1.22
same,relative viability,NCI-H322M; first compound 0.002 µM,1.05
same,relative viability,NCI-H322M; first compound 0.006325 µM,0.602
same,relative viability,NCI-H322M; first compound 0.02 µM,0.469
same,relative viability,NCI-H1563; first compound 0.0002 µM,0.912
same,relative viability,NCI-H1563; first compound 0.000632 µM,1.02
same,relative viability,NCI-H1563; first compound 0.002 µM,0.989
same,relative viability,NCI-H1563; first compound 0.006325 µM,0.741
same,relative viability,NCI-H1563; first compound 0.02 µM,0.582
same,relative viability,NCI-H1666; first compound 0.0002 µM,0.582
same,relative viability,NCI-H1666; first compound 0.000632 µM,0.452
same,relative viability,NCI-H1666; first compound 0.002 µM,0.378
same,relative viability,NCI-H1666; first compound 0.006325 µM,0.249
same,relative viability,NCI-H1666; first compound 0.02 µM,0.205
same,relative viability,EMC-BAC-2; first compound 0.0002 µM,0.963
same,relative viability,EMC-BAC-2; first compound 0.000632 µM,0.875
same,relative viability,EMC-BAC-2; first compound 0.002 µM,0.573
same,relative viability,EMC-BAC-2; first compound 0.006325 µM,0.306
same,relative viability,EMC-BAC-2; first compound 0.02 µM,0.206
same,relative viability,NCI-H1975; first compound 0.0002 µM,0.366
same,relative viability,NCI-H1975; first compound 0.000632 µM,0.246
same,relative viability,NCI-H1975; first compound 0.002 µM,0.166
same,relative viability,NCI-H1975; first compound 0.006325 µM,0.15
same,relative viability,NCI-H1975; first compound 0.02 µM,0.141
same,relative viability,LCLC-103H; first compound 0.0002 µM,1.15
same,relative viability,LCLC-103H; first compound 0.000632 µM,1.12
same,relative viability,LCLC-103H; first compound 0.002 µM,0.714
same,relative viability,LCLC-103H; first compound 0.006325 µM,0.589
same,relative viability,LCLC-103H; first compound 0.02 µM,0.402

# Source: the supplement of paper PMC10307832
